According to ChEMBL document CHEMBL3044601, “Movento®, an innovative ambimobile insecticide for sucking insect pest control in agriculture: Biological profile and field performance” (Crop Prot, 2009):
Converted amounts (≈) assume the structure as drawn.

Columns and labels:
Myzus persicae [1] = test: Insecticidal activity against Myzus persicae (green peach aphid) infected first leaf of cabbage plant assessed as phloem-systemic efficacy at 100 ug/plant treated with 2 g/L rapeseed oil methylester measured after 7 days on 3rd leaf by phloem mobility bioassay; assay type: functional
Myzus persicae [2] = test: Resistance ratio, LC50 for third instar nymph of carbamates, pyrethroids-resistant Myzus persicae JR (green peach aphid) to LC50 for third instar nymph of Myzus persicae NS; assay type: functional
Bemisia tabaci [3] = test: Insecticidal activity against second instar nymph of organophosphates-resistant Bemisia tabaci MEX03-02 (sweet potato whitefly) in cotton plant leaf after 10 days by leaf-dip bioassay; assay type: functional; conditions: MEX03-02, 240 h
Myzus persicae [4] = test: Insecticidal activity against Myzus persicae (green peach aphid) infected first leaf of cabbage plant assessed as phloem-systemic efficacy at 0.032 ug/plant treated with 2 g/L rapeseed oil methylester measured after 7 days on 3rd leaf by phloem mobility bioassay; assay type: functional
Myzus persicae [5] = test: Insecticidal activity against third-instar nymph of carbamates, pyrethroids-resistant Myzus persicae F04-01 (green peach aphid) in Brassica oleracea leaf disc after 3 days by leaf-dip bioassay; assay type: functional; conditions: F04-01, foliar, 72 h
Myzus persicae [6] = test: Insecticidal activity against Myzus persicae (green peach aphid) infected first leaf of cabbage plant assessed as phloem-systemic efficacy at 0.8 ug/plant treated with 2 g/L rapeseed oil methylester measured after 7 days on 3rd leaf by phloem mobility bioassay; assay type: functional
Bemisia tabaci [7] = test: Resistance ratio, LC50 for second instar nymph of organophosphates-resistant Bemisia tabaci CRE04-01 (sweet potato whitefly) to LC50 for second instar nymph of Bemisia tabaci SUD-S; assay type: functional
Myzus persicae [8] = test: Insecticidal activity against Myzus persicae (green peach aphid) infected first leaf of cabbage plant assessed as phloem-systemic efficacy at 20 ug/plant treated with 2 g/L rapeseed oil methylester measured after 7 days on 3rd leaf by phloem mobility bioassay; assay type: functional
Myzus persicae [9] = test: Insecticidal activity against Myzus persicae (green peach aphid) infected first leaf of cabbage plant assessed as phloem-systemic efficacy at 0.16 ug/plant treated with 2 g/L rapeseed oil methylester measured after 7 days on 3rd leaf by phloem mobility bioassay; assay type: functional
Myzus persicae [10] = test: Insecticidal activity against adult Myzus persicae (green peach aphid) in Brassica oleracea leaf disc treated with 1 g/L rapeseed oil methylester after 3 days by leaf-dip bioassay; assay type: functional
Bemisia tabaci [11] = test: Insecticidal activity against second instar nymph of organophosphates-resistant Bemisia tabaci ISR-02 (sweet potato whitefly) in cotton plant leaf after 10 days by leaf-dip bioassay; assay type: functional; conditions: ISR-02, 240 h
Myzus persicae [12] = test: Insecticidal activity against first instar nymph of Myzus persicae (green peach aphid) in Brassica oleracea leaf disc treated with 1 g/L rapeseed oil methylester after 3 days by leaf-dip bioassay; assay type: functional
Myzus persicae [13] = test: Insecticidal activity against third-instar nymph of carbamates, pyrethroids-resistant Myzus persicae JR (green peach aphid) in Brassica oleracea leaf disc after 3 days by leaf-dip bioassay; assay type: functional; conditions: foliar, 72 h
Myzus persicae [14] = test: Resistance ratio, LC50 for third instar nymph of carbamates, pyrethroids-resistant Myzus persicae F04-01 (green peach aphid) to LC50 for third instar nymph of Myzus persicae NS; assay type: functional
Bemisia tabaci [15] = test: Insecticidal activity against second instar nymph of organophosphates-resistant Bemisia tabaci ESP-00 (sweet potato whitefly) in cotton plant leaf after 10 days by leaf-dip bioassay; assay type: functional; conditions: ESP-00, 240 h
[16] = Dissociation constant, pKa of the compound; assay type: physicochemical
Bemisia tabaci [17] = test: Resistance ratio, LC50 for second instar nymph of organophosphates, pyrethroids, buprofezin, pyriproxyfen and pymetrozin-resistant Bemisia tabaci BR-JM03 (sweet potato whitefly) to LC50 for second instar nymph of Bemisia tabaci SUD-S; assay type: functional
Bemisia tabaci [18] = test: Insecticidal activity against second instar nymph of Bemisia tabaci SUD-S (sweet potato whitefly) in cotton plant leaf after 10 days by leaf-dip bioassay; assay type: functional; conditions: 240 h
Bemisia tabaci [19] = test: Resistance ratio, LC50 for second instar nymph of organophosphates-resistant Bemisia tabaci ISR-02 (sweet potato whitefly) to LC50 for second instar nymph of Bemisia tabaci SUD-S; assay type: functional
Bemisia tabaci [20] = test: Resistance ratio, LC50 for second instar nymph of organophosphates-resistant Bemisia tabaci MEX03-02 (sweet potato whitefly) to LC50 for second instar nymph of Bemisia tabaci SUD-S; assay type: functional
Myzus persicae [21] = test: Insecticidal activity against third-instar nymph of Myzus persicae NS (green peach aphid) in Brassica oleracea leaf disc after 3 days by leaf-dip bioassay; assay type: functional; conditions: foliar, 72 h
Bemisia tabaci [22] = test: Resistance ratio, LC50 for second instar nymph of organophosphates-resistant Bemisia tabaci ESP-00 (sweet potato whitefly) to LC50 for second instar nymph of Bemisia tabaci SUD-S; assay type: functional
Bemisia tabaci [23] = test: Insecticidal activity against second instar nymph of organophosphates-resistant Bemisia tabaci CRE04-01 (sweet potato whitefly) in cotton plant leaf after 10 days by leaf-dip bioassay; assay type: functional; conditions: CRE04-01, 240 h
Bemisia tabaci [24] = test: Insecticidal activity against second instar nymph of organophosphates, pyrethroids, buprofezin, pyriproxyfen and pymetrozin-resistant Bemisia tabaci BR-JM03 (sweet potato whitefly) in cotton plant leaf after 10 days by leaf-dip bioassay; assay type: functional; conditions: BR-JM03, 240 h
Myzus persicae [25] = test: Insecticidal activity against Myzus persicae (green peach aphid) infected first leaf of cabbage plant assessed as phloem-systemic efficacy at 4 ug/plant treated with 2 g/L rapeseed oil methylester measured after 7 days on 3rd leaf by phloem mobility bioassay; assay type: functional
[26] = Lipophilicity, log P of the compound; assay type: physicochemical; conditions: octanol/water

In the case of `CCOC(=O)OC1=C(c2cc(C)ccc2C)C(=O)N[C@]12CC[C@@H](OC)CC2` [SPIROTETRAMAT], the Efficacy (Myzus persicae [1]) is reported as 100%, the RatioLC50 (Myzus persicae [2]) is reported as 0.9 and the LC50 (Bemisia tabaci [3]) is reported as 0.49 µg/mL (≈ 1.31 µM). For the same molecule, the Efficacy (Myzus persicae [4]) was 8.8%, the LC50 (Myzus persicae [5]) was 0.27 µg/mL (≈ 0.723 µM) and the Efficacy (Myzus persicae [6]) was 56.7%. The RatioLC50 (Bemisia tabaci [7]) was 3.8, the Efficacy (Myzus persicae [8]) was 100% and the Efficacy (Myzus persicae [9]) was 22.5%. It also gave an LC95 (Myzus persicae [10]) of 22 ppm, an LC50 (Bemisia tabaci [11]) of 0.72 µg/mL (≈ 1.93 µM) and an LC95 (Myzus persicae [12]) of 0.73 ppm. It also gave an LC50 (Myzus persicae [13]) of 0.59 µg/mL (≈ 1.58 µM), a RatioLC50 (Myzus persicae [14]) of 0.4 and an LC50 (Bemisia tabaci [15]) of 0.74 µg/mL (≈ 1.98 µM). The pKa [16] was 5.2, the RatioLC50 (Bemisia tabaci [17]) was 2.5 and the LC50 (Bemisia tabaci [18]) was 0.26 µg/mL (≈ 0.696 µM). The RatioLC50 (Bemisia tabaci [19]) was 2.8, the RatioLC50 (Bemisia tabaci [20]) was 1.9 and the LC50 (Myzus persicae [21]) was 0.69 µg/mL (≈ 1.85 µM). It also gave a RatioLC50 (Bemisia tabaci [22]) of 2.8, an LC50 (Bemisia tabaci [23]) of 1 µg/mL (≈ 2.68 µM) and an LC50 (Bemisia tabaci [24]) of 0.64 µg/mL (≈ 1.71 µM). The Efficacy (Myzus persicae [25]) was 85.6% and the logP [26] was 0.3.
